≈ marks a conversion by molar mass, not a printed value.
Columns and labels:
Cytochrome P450 2C8 = molecular target: T1, Cytochrome P450 2C8 (Homo sapiens, UniProt P10632); assay: Inhibition of human CYP2C8 by fluorescence method; assay type: ADME
T1 sequence (P10632 whole entry): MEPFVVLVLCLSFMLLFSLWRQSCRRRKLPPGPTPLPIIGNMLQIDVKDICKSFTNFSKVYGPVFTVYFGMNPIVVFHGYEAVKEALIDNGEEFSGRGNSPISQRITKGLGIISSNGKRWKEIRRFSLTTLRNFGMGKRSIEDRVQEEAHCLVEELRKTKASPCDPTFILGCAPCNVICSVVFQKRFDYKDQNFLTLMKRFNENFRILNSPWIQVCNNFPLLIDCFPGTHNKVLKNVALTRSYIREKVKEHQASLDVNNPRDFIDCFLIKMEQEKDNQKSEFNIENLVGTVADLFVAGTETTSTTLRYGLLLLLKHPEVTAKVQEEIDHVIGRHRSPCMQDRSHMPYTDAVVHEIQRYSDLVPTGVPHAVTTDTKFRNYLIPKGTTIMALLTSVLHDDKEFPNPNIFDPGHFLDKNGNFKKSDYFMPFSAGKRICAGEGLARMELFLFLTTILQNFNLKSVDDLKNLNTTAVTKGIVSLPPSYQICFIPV

[1] = Apparent permeability across apical to basolateral side in human Caco2 cells at 10 uM after 15 to 90 mins by LC-ESI-MS/MS analysis; assay type: ADME, cell-based; conditions: Caco-2
Cytochrome P450 2C19 = Cytochrome P450 2C19 (Homo sapiens, UniProt P33261); assay: Inhibition of human CYP2C19 by fluorescence method; assay type: ADME
Cytochrome P450 2C9 = Cytochrome P450 2C9 (Homo sapiens, UniProt P11712); assay: Inhibition of human CYP2C9 by fluorescence method; assay type: ADME
Cytochrome P450 = assay: Drug metabolism in human liver microsomes assessed as CYP450-mediated formation of [+O] metabolites at 1 uM after 60 mins in absence of NADPH by LC-MS analysis; assay type: ADME; conditions: 1 h
[2] = molecular target: T2, Bifunctional epoxide hydrolase 2 (Homo sapiens) (UniProt P34913); conditions: Sf21, at 1 µM
T2 sequence (whole entry): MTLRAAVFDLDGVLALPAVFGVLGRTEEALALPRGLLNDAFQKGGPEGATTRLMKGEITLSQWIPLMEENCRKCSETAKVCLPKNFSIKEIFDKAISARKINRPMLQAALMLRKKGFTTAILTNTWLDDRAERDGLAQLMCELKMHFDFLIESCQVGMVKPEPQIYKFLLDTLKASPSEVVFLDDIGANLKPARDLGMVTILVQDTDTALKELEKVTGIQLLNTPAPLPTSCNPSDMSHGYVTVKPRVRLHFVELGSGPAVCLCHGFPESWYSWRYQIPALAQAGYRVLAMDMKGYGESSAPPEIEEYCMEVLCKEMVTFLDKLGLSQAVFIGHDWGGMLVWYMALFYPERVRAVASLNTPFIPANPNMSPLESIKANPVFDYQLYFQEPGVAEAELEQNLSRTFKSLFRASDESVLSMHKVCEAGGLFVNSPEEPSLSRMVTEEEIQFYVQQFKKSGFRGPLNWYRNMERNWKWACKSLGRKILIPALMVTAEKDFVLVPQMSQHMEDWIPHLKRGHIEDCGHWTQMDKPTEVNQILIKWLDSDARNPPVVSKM
Description: Inhibition of N-terminal His-tagged recombinant human soluble epoxide hydrolase (2 to 555 residues) expressed in Sf21 insect cells at 1 uM using as 14,15-EET as substrate after 10 mins by reversed-phase HPLC assay relative to control

Cytochrome P450 2J2 = molecular target: T3, Cytochrome P450 2J2 (Homo sapiens, UniProt P51589); assay: Inhibition of recombinant human CYP2J2 expressed in baculovirus infected insect cells co-expressing NADPH-CYP reductase and cytochrome b5 assessed as reduction in CYP2J2-mediated EPA epoxidation by measuring sum of EEQ and DiHETEs level at 1 to 50 uM using EPA as substrate preincubated for 5 mins followed by NADPH addition and measured after 15 mins by LCMS/MS analysis; assay type: ADME; conditions: recombinant enzyme, 0.25 h
T3 sequence (P51589 whole entry): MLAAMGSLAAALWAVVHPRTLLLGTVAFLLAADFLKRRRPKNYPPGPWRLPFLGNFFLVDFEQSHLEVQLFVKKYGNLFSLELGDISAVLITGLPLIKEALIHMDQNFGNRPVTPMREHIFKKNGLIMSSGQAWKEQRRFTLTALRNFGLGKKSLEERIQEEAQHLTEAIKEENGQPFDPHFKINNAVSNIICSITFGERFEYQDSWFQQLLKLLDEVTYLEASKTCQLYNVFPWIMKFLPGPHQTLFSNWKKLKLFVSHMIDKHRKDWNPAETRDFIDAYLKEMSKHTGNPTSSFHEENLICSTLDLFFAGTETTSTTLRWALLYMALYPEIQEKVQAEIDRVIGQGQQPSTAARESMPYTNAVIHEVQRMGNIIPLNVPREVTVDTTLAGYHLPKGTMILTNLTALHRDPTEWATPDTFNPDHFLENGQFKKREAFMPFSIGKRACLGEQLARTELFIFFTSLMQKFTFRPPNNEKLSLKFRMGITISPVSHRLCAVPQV

[3] = Negative chronotropic activity in Wistar rat neonatal cardiomyocytes assessed as decrease in basal beating rate after 7 mins by inverted microscopic method; assay type: functional, cell-based
[4] = Stability in human plasma at 10 uM measured over 240 mins by LC-ESI-MS/MS analysis; assay type: ADME, cell-free; conditions: 4 h
[5] = molecular target: T4, Epoxide hydrolase 1/Bifunctional epoxide hydrolase 2 (Homo sapiens, UniProt P07099+P34913); assay: Drug metabolism in human liver microsomes assessed as microsomal/soluble epoxide hydrolase mediated formation of [+O + H2O] metabolites at 1 uM after 60 mins in absence of NADPH by LC-MS analysis; assay type: ADME; conditions: 1 h
T4 sequence (P07099 whole entry): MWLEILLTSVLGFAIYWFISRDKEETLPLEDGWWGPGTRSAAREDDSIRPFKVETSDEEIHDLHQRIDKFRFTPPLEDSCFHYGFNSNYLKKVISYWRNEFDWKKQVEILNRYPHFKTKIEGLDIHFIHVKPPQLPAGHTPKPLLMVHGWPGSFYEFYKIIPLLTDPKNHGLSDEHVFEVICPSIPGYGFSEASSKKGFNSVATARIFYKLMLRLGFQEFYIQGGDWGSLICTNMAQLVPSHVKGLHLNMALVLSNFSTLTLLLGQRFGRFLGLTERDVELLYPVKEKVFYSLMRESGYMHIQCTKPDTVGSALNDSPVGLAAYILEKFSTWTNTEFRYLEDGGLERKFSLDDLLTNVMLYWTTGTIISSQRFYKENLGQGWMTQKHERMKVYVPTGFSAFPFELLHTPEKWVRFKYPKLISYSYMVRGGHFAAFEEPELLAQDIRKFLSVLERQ
T4 sequence (P34913 whole entry): T2 sequence (whole entry)

[6] = Efflux ratio of apparent permeability across basolateral to apical side over apical to basolateral side in human Caco2 cells at 10 uM after 15 to 90 mins by LC-ESI-MS/MS analysis; assay type: ADME, cell-based; conditions: Caco-2
[7] = Stability of compound in HEPES buffer assessed as parent compound remaining at 1 uM after 180 mins by LC-ESI-MS/MS analysis; assay type: physicochemical; conditions: read-out: Stability
Cytochrome P450 2D6 = Cytochrome P450 2D6 (Homo sapiens, UniProt P10635); assay: Inhibition of human CYP2D6 by fluorescence method; assay type: ADME
[8] = Aqueous solubility of the compound in pH 7.4 potassium phosphate buffer at 2 mg after 1 to 24 hrs by RP-HPLC method; assay type: physicochemical; conditions: potassium phosphate buffer, read-out: solubility
[9] = Tmax in Sprague-Dawley (RjHan:SD) rat at 3 mg/kg, po administered via gavage by LC-MS analysis; assay type: ADME, organism-based; conditions: in vivo

Sequence of Cytochrome P450 2C9 (P11712 whole entry): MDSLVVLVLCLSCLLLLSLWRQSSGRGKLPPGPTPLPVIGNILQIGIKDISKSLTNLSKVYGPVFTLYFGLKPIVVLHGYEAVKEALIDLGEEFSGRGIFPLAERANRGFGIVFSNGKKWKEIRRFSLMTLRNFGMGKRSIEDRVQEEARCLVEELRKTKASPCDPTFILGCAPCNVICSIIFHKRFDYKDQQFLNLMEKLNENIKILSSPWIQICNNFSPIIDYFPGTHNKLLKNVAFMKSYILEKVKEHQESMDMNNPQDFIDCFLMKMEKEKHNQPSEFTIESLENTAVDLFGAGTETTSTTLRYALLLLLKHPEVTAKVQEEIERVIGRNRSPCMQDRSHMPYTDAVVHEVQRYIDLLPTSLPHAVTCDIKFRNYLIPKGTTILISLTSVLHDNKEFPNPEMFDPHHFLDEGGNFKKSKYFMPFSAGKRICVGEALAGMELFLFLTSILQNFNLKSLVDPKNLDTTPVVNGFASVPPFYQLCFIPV
Sequence of Cytochrome P450 2C19 (P33261 whole entry): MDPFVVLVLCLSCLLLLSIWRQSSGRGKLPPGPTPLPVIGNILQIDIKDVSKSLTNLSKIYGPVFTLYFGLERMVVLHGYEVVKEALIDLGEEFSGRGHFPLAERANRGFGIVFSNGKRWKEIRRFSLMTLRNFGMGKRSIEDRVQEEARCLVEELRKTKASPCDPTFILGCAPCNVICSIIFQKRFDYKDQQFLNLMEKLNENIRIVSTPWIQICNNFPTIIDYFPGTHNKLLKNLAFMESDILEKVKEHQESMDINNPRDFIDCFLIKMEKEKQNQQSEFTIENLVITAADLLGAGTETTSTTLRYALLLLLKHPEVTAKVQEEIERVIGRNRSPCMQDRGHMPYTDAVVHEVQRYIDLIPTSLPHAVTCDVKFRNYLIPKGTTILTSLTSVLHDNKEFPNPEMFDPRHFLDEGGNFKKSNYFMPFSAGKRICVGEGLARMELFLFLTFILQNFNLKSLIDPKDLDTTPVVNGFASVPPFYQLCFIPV
Sequence of Cytochrome P450 2D6 (P10635 whole entry): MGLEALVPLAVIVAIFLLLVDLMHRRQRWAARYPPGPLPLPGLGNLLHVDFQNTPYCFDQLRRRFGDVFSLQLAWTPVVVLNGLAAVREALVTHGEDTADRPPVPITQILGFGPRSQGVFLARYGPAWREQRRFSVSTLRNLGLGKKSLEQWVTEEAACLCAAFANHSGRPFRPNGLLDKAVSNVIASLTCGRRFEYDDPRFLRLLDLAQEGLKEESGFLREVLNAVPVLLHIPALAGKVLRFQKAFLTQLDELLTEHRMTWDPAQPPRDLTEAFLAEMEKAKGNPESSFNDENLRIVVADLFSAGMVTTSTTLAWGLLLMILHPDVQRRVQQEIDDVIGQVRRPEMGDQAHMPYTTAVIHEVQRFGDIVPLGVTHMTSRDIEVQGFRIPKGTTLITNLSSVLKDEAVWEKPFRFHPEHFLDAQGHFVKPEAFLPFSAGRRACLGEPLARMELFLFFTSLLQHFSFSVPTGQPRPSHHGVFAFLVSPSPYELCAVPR

Row | SMILES | IC50 (Cytochrome P450 2C8) [µM] | Papp A→B at 10 µM [1] [×10⁻⁶ cm/s] | IC50 (Cytochrome P450 2C19) [µM] | IC50 (Cytochrome P450 2C9) [µM] | Drug metabolism (Cytochrome P450) | inhibition [2] [%] | inhibition (INH) (Cytochrome P450 2J2) | EC50 [3] [nM] | Stability [4] | Drug metabolism [5] | efflux ratio at 10 µM [6] | remaining at 3 h, 1 µM [7] [%] | IC50 (Cytochrome P450 2D6) [µM] | solubility [8] [µg/mL] | Tmax [9] [h]
1 | CNC(=O)C(=O)NCCCC/C=C\CCCCCCCCCC(=O)O | > 50 | 5.3 | > 50 | > 50 | Metabolite_Notdetected | -4.1 | Not Active | 5.69 | Stable | Metabolite_Notdetected | 0.4 | 85.3 | > 50 | 80 (≈ 226 µM) | 1.6
2 | CNC(=O)C(=O)NCCCC/C=C\CCCCCCCOCC(=O)O | > 50 | 28.2 | 46.2 | > 50 | Metabolite_Notdetected | 0.8 | Not Active | 1.41 | Stable | Metabolite_Notdetected | 0.6 | 102 | > 50 | 1960 (≈ 5500 µM) | 1.6
3 | CNC(=O)C(=O)NCCCC/C=C\CCCCCCCCCc1nnn[nH]1 | > 50 | 10 | 0.21 | 5.4 | Metabolite_Notdetected | -1.3 | Active | 1.15 | Stable | Metabolite_Notdetected | 0.8 | 104 | 43.2 | 40 (≈ 106 µM) | 2

Source: ChEMBL document CHEMBL4414645, “Development of Robust 17(R),18(S)-Epoxyeicosatetraenoic Acid (17,18-EEQ) Analogues as Potential Clinical Antiarrhythmic Agents” (J Med Chem, 2019)
